Results from PMC10799341, “Carnosol ameliorated cancer cachexia-associated myotube atrophy by targeting P5CS and its downstream pathways” (Frontiers in Pharmacology, 2024).
pKd: −log10 of the molar value.

How the values were obtained:
[1] = target: T1, P5CS, endogenous in H9c2 cardiomyocytes (Rattus norvegicus, UniProt A0A8I6AAN3); assay: CETSA, Western blot; type: biochemical; settings: H9c2 cell lysate, 20 μM carnosol, 30 min room temperature then 1 h at 4 °C; heated 5 min
T1 construct: gene Aldh18a1; native endogenous protein in H9c2 cell lysate; no tag; detected by Western blot

GFP-Aldh18a1 (P5CS) = target: T2, GFP-Aldh18a1 (P5CS) (Mus musculus, UniProt Q9Z110); assay: microscale thermophoresis (Monolith NT.[…]); type: binding
T2 construct: GFP fusion from plasmid, tag kept; expressed in 293T cells, used as NP40 lysate
T2 sequence (Q9Z110 1-795): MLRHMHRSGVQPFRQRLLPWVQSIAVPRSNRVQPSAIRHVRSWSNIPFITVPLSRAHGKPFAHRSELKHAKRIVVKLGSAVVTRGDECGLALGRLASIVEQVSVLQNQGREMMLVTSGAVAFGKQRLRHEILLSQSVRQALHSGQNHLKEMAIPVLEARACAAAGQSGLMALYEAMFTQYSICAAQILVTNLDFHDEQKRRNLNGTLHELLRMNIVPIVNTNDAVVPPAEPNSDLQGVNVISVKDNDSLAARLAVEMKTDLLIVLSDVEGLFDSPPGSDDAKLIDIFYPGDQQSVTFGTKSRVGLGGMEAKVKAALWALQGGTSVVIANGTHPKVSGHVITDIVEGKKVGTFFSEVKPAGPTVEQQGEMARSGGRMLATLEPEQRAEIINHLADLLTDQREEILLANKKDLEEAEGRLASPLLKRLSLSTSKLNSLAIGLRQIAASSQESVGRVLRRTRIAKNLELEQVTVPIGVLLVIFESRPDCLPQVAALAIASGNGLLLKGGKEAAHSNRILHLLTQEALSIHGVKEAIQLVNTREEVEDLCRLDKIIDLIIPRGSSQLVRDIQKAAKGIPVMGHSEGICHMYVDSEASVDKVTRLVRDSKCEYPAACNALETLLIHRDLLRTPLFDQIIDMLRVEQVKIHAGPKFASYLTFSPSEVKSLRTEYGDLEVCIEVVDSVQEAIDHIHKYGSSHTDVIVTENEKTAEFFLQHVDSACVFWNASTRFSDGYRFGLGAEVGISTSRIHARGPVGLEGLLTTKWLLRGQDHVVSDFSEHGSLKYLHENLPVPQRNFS

[2] = target: T3, P5CS (Aldh18a1), endogenous in C2C12 myotubes (Mus musculus, UniProt Q9Z110); assay: CETSA, Western blot; type: cell-based; settings: intact C2C12 myotubes, 20 μM carnosol, 1 h; NP40 lysate heated 5 min
T3 construct: native endogenous protein in C2C12 myotubes; no tag; detected by Western blot
T3 sequence (Q9Z110 1-795): T2 sequence (Q9Z110 1-795)

T1 sequence (A0A8I6AAN3 1-795): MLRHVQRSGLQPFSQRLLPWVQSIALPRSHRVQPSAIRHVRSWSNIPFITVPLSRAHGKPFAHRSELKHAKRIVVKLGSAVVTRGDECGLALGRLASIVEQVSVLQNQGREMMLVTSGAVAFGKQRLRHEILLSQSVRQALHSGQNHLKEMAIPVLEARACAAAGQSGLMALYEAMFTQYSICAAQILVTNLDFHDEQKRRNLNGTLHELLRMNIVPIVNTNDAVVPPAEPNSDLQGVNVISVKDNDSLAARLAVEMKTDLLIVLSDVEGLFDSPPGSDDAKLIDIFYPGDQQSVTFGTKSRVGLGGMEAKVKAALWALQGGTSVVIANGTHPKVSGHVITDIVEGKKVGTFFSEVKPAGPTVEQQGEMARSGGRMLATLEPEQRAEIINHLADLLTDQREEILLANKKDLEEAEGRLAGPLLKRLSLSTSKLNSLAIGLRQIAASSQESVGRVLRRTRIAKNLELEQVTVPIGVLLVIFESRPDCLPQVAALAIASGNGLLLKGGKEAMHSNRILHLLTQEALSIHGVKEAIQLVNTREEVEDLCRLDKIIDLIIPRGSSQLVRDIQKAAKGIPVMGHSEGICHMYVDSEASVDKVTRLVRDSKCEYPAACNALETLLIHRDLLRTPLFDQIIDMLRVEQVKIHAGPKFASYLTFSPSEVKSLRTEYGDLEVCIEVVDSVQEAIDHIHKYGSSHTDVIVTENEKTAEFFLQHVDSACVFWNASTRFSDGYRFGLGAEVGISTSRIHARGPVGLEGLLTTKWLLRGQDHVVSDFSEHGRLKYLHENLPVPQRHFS

Structure (SMILES): CC(C)c1cc2c(c(O)c1O)[C@@]13CCCC(C)(C)[C@@H]1C[C@@H]2OC3=O [carnosol]
- thermal stability [1]: H9c2 cardiomyocytes also showed similar results that carnosol increased the thermal stability of P5CS
- pKd (GFP-Aldh18a1 (P5CS)): 4.76
- thermal stability [2]: the thermal stability of P5CS in C2C12 was improved after the incubation of myotubes with carnosol
